Measurements reported in article PMC3909880 (Nature communications, 2013).

System: M. tuberculosis IAR2 mutant (mmpL3 S288T)
Type: cell-based, Mycobacterium tuberculosis

Molecule	MIC for IAR2 [µg/mL]	Fold change in MIC for IAR2
NCC[C@H](O)C(=O)N[C@@H]1C[C@H](N)[C@@H](O[C@H]2O[C@H](CN)[C@@H](O)[C@H](O)[C@H]2O)[C@H](O)[C@H]1O[C@H]1O[C@H](CO)[C@@H](O)[C@H](N)[C@H]1O [Amikacin]	1	
CC[C@@H](CO)NCCN[C@@H](CC)CO [Ethambutol]	1	
NNC(=O)c1ccncc1 [Isoniazid]	0.04	
NC[C@H]1O[C@H](O[C@H]2[C@H](O)[C@@H](O[C@H]3O[C@H](CO)[C@@H](O)[C@H](N)[C@H]3O)[C@H](N)C[C@@H]2N)[C@H](O)[C@@H](O)[C@@H]1O [Kanamycin]	2	
C[C@H]1COc2c(N3CCN(C)CC3)c(F)cc3c(=O)c(C(=O)O)cn1c23 [Levofloxacin]	0.25	
CO[C@H]1/C=C/O[C@@]2(C)Oc3c(C)c(O)c4c(O)c(c(/C=N/N5CCN(C)CC5)c(O)c4c3C2=O)NC(=O)/C(C)=C\C=C\[C@H](C)[C@H](O)[C@@H](C)[C@@H](O)[C@@H](C)[C@H](OC(C)=O)[C@@H]1C [Rifampin]	0.03125	0.25
CC(C)=CCC/C(C)=C/CNCCNC1C2CC3CC(C2)CC1C3 (stereo not shown) [SQ109]	4	16
Capreomycin	1	
